Measured values: patent US8946266B2, “Substituted triazole and imidazole derivatives as gamma secretase modulators” (Janssen Pharmaceuticals, Inc., priority 2009, dated 2015)

Tests used:
Aβ42 = test: In vivo efficacy, Method 1: brain soluble Aβ42 lowering 4 h after a single oral dose, ELISA (Table 4a); design: species or system mouse; details: dose 30 mg/kg oral dosing
Source text: To determine whether acute administration of an Aβ42 lowering agent would reduce Aβ42 levels in vivo, non-transgenic rodents, e.g. mice or rats were used. Alternatively, two to three month old Tg2576 mice expressing APP695 containing the “Swedish” variant can be used or a transgenic mouse model developed by Dr. Fred Van Leuven (K.U. Leuven, Belgium) and co-workers, with neuron-specific expression of a clinical mutant of the human amyloid precursor protein [V717I] (Moechars et al., 1999 J. Biol. Chem. 274, 6483). Young transgenic mice have high levels of Aβ in the brain but no detectable Aβ deposition. At approximately 6-8 months of age, the transgenic mice start to display spontaneous, progressive accumulation of β-amyloid (Aβ) in the brain, eventually resulting in amyloid plaques within the subiculum, hippocampus and cortex. Animals treated with the Aβ42 lowering agent were examined and compared to those untreated or treated with vehicle and brain levels of soluble Aβ42 and total Aβ would be quantitated by standard techniques, for example, using ELISA. Treatment periods varied from hours (h) to days and were adjusted based on the results of the Aβ42 lowering once a time course of onset of effect could be established.
A typical protocol for measuring Aβ42 lowering in vivo is shown but it is only one of many variations that could be used to optimize the levels of detectable Aβ. For example, Aβ42 lowering compounds were formulated in 20% of Captisol® (a sulfobutyl ether of β-cyclodextrin) in water or 20% hydroxypropyl cyclodextrin. The Aβ42 lowering agents were administered as a single oral dose or by any acceptable route of administration to overnight fasted animals. After 4 h, the animals were sacrificed and Aβ42 levels were analysed.
Blood was collected by decapitation and exsanguinations in EDTA-treated collection tubes. Blood was centrifuged at 1900 g for 10 minutes (min) at 4° C. and the plasma recovered and flash frozen for later analysis. The brain was removed from the cranium and hindbrain. The cerebellum was removed and the left and right hemisphere were separated. The left hemisphere was stored at −18° C. for quantitative analysis of test compound levels. The right hemisphere was rinsed with phosphate-buffered saline (PBS) buffer and immediately frozen on dry ice and stored at −80° C. until homogenization for biochemical assays.
Mouse brains were resuspended in 10 volumes of 0.4% DEA (diethylamine)/50 mM NaCl pH 10 (for non-transgenic animals) or 0.1% 3-[(3-cholamidopropyl)-dimethyl-ammonio]-1-propanesulfonate (CHAPS) in tris buffered saline (TBS) (for transgenic animals) containing protease inhibitors (Roche-11873580001 or 04693159001) per gram of tissue, e.g. for 0.158 g brain, add 1.58 ml of 0.4% DEA. All samples were sonicated for 30 seconds on ice at 20% power output (pulse mode). Homogenates were centrifuged at 221.300×g for 50 min. The resulting high speed supernatants were then transferred to fresh tubes and were optionally further purified before the next step. A portion of the supernatant was neutralized with 10% 0.5 M Tris-HCl and this was used to quantify Aβtotal.
The obtained supernatants were purified with Water Oasis HLB reverse phase columns (Waters Corp., Milford, Mass.) to remove non-specific immunoreactive material from the brain lysates prior subsequent Aβ detection. Using a vacuum manifold, all solutions were passed through the columns at a rate of approximately 1 ml per min, so the vacuum pressure was adjusted accordingly throughout the procedure. Columns were preconditioned with 1 ml of 100% MeOH, before equilibration with 1 ml of H2O, Non-neutralized brain lysates were loaded onto the columns. The loaded samples were then washed twice with the first wash performed with 1 ml of 5% MeOH, and the second wash with 1 ml of 30% MeOH. Finally, the Aβ was eluted from the columns and into 100×30 mm glass tubes, with a solution of 90% MeOH with 2% NH4OH. […]

Aβtotal = test: γ-secretase-modulating activity, Method 1: Aβtotal sandwich ELISA in supernatant of SKNBE2 cells carrying APP 695-wild type; assay type: cell-based; details: Table 3a, 18 h, averaged IC50 values
Description: Pharmacology A) Screening of the Compounds of the Invention for γ-Secretase-Modulating Activity A1) Method 1
Screening was carried out using SKNBE2 cells carrying the APP 695-wild type, grown in Dulbecco's Modified Eagle's Medium/Nutrient mixture F-12 (DMEM/NUT-mix F-12) (HAM) provided by Gibco (cat no. 31330-38) containing 5% Serum/Fe supplemented with 1% non-essential amino acids. Cells were grown to near confluency.
The screening was performed using the assay as described in Citron et al (1997) Nature Medicine 3: 67. Briefly, cells were plated in a 96-well plate at about 10^5 cells/ml one day prior to addition of compounds. Compounds were added to the cells in Ultraculture (Lonza, BE12-725F) supplemented with 1% glutamine (Invitrogen, 25030-024) for 18 h. The media were assayed by two sandwich ELISAs, for Aβ42 and Aβtotal. Toxicity of the compounds was assayed by WST-1 cell proliferation reagent (Roche, 1 644 807) according to the manufacturer's protocol.
To quantify the amount of Aβtotal in the cell supernatant, samples and standards were added to a 6E10-coated plate. The plate was allowed to incubate overnight at 4° C. in order to allow formation of the antibody-amyloid complex. Following this incubation and subsequent wash steps a selective anti-Aβ-antibody conjugate (biotinylated 4G8) was added and incubated for a minimum of 1 h in order to allow formation of the antibody-Amyloid-antibody-complex. After incubation and appropriate wash steps, a Streptavidine-Peroxidase-Conjugate was added, followed 30 minutes later by an addition of Quanta Blu fluorogenic peroxidase substrate according to the manufacturer's instructions (Pierce Corp., Rockford, Ill.).

| IC50 (Aβtotal) [µM] | IC50 (Aβtotal; Homo sapiens) [µM] | SMILES | Aβ42 (% Ctrl) _Mean (Aβ42) [% Ctrl] |
| --- | --- | --- | --- |
| 11.5 | – | COc1cc(-c2nc(Nc3ccc(F)cc3C(F)(F)F)n(C)n2)ccc1-n1cnc(C)c1 [Compound 15] | 42 |
| – | – | COc1cc(-c2nc(Nc3cccc(C(F)(F)F)c3)n(C)n2)ccc1-n1cnc(C)c1 [Compound 146] | 27 |
| – | > 30 | COc1cc(-c2nc(-c3ccccc3)n(C)n2)ccc1-n1cnc(C)c1 [Compound 9] | 24 |
| – | > 3 | COc1cc(-c2nc(C)c(-c3ccccc3)[nH]2)ccc1-n1cnc(C)c1 [Compound 11] | 4 |
